This passage reports T/C results from PubChem BioAssay AID206 (DTP/NCI, 2004).

The experiment deals with nude mice, HT29 intrarenal xenograft, tumor weight T/C. The experiment is described as follows: NCI In Vivo Anticancer Drug Screen. Data for tumor model HT29;CX-1 Human Adenocarcinoma (MER+) (intrarenal inoculation) in NU/NU Swiss (nude) mice. The following applies: endpoint: mean tumor weight change, higher = larger tumour. The method, boiled down:
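Tumor-bearing mice received test compound or vehicle, and tumor size or survival was recorded. Values are the treated-group measurement divided by the vehicle-treated control measurement.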

Setting [1] is: dose: 50.0 mg/kg/injection, schedule: Q04DX004 (sc), vehicle: saline with Tween-80.
Where [2] appears, read: dose: 100.0 mg/kg/injection, schedule: Q04DX004 (sc), vehicle: saline with Tween-80.
Where [3] appears, read: dose: 600.0 mg/kg/injection, schedule: Q04DX004 (sc), vehicle: saline.
[4] abbreviates: dose: 1200.0 mg/kg/injection, schedule: Q04DX004 (sc), vehicle: saline.
The mark [5] stands for this setting: dose: 200.0 mg/kg/injection, schedule: Q01DX010 (sc), vehicle: saline.

Values joined by “and” are separate entries in the source; they are usually repeats but may differ in a detail not shown here. Equal entries are not always repeated. Records with an inconclusive call do not appear.

With `N#CC(=C1C=CC(=NO)C=C1)c1ccc(Cl)cc1`, the T/C by setting is: under setting [1], 80 % of control; under setting [2], 90 % of control; (dose: 400.0 mg/kg/injection, schedule: Q04DX004 (sc), vehicle: saline with Tween-80) 113 % of control.
In the case of `CN1C(=O)NC(c2ccc(Cl)cc2)(c2ccc(Cl)cc2)C1=O`, the T/C is 97 % of control (dose: 50.0 mg/kg/injection, schedule: Q01DX010 (sc), vehicle: saline with Tween-80); 109 % of control (dose: 100.0 mg/kg/injection, schedule: Q01DX010 (sc), vehicle: saline with Tween-80); 43 % of control (dose: 400.0 mg/kg/injection, schedule: Q01DX010 (sc), vehicle: saline with Tween-80).
In the case of `N=c1ccn2c(n1)OC1C(O)C(CO)OC12` (stereo unspecified), the T/C is, setting by setting: (dose: 300.0 mg/kg/injection, schedule: Q04DX004 (sc), vehicle: saline) 50 % of control; (dose: 300.0 mg/kg/injection, schedule: Q04DX004 (sc), vehicle: suspension in saline) 105 % of control; (dose: 400.0 mg/kg/injection, schedule: Q04DX004 (sc), vehicle: saline) 98 % of control; under setting [3], 60 % of control; (dose: 600.0 mg/kg/injection, schedule: Q04DX004 (sc), vehicle: suspension in saline) 66 % of control; (dose: 800.0 mg/kg/injection, schedule: Q04DX004 (sc), vehicle: saline) 31 % of control. In addition, the T/C under setting [4] was 42 % of control; the T/C (dose: 1200.0 mg/kg/injection, schedule: Q04DX004 (sc), vehicle: suspension in saline) is 38 % of control; the T/C (dose: 1600.0 mg/kg/injection, schedule: Q04DX004 (sc), vehicle: saline) is 36 % of control; the T/C (dose: 2400.0 mg/kg/injection, schedule: Q04DX004 (sc), vehicle: suspension in saline) was 42 % of control.
`NCCc1ccc(O)c(O)c1`: the T/C under setting [5] is 78 % of control.
In the case of `COc1cc2cc3cc4cc(OC)c(OC)cc4c(C)[n+]3cc2cc1OC` (tested in a mixture with another compound), the T/C (dose: 200.0 mg/kg/injection, schedule: Q04DX004 (sc), vehicle: suspension in saline) was 118 % of control; the T/C (dose: 400.0 mg/kg/injection, schedule: Q04DX004 (sc), vehicle: suspension in saline) was 80 % of control; the T/C (dose: 800.0 mg/kg/injection, schedule: Q04DX004 (sc), vehicle: suspension in saline) was 98 % of control.
Consider `CCCNC1=C(C)C(=O)C2=C(C1=O)[C@H](COC(N)=O)[C@]1(OC)[C@@H]3N[C@@H]3CN21`, for which the T/C by setting is: (dose: 6.0 mg/kg/injection, schedule: Q04DX003 (sc), vehicle: saline) 78 % of control; (dose: 12.0 mg/kg/injection, schedule: Q04DX003 (sc), vehicle: saline) 1 % of control.
Regarding `Cc1cn(C2CC3[O][Sn]([c]4ccccc4)([c]4ccccc4)[O]CC3O2)c(=O)[nH]c1=O` (stereo unspecified), the T/C is, setting by setting: (dose: 25.0 mg/kg/injection, schedule: Q01DX010 (sc), vehicle: saline) 60 % of control; (dose: 50.0 mg/kg/injection, schedule: Q01DX010 (sc), vehicle: saline) 60 % of control; (dose: 100.0 mg/kg/injection, schedule: Q01DX010 (sc), vehicle: saline) 79 % of control; under setting [5], 55 % of control; under setting [3], 94 % of control; under setting [4], 95 % of control. Moreover, under “dose: 2400.0 mg/kg/injection, schedule: Q04DX004 (sc), vehicle: saline”, the T/C was 94 % of control.
With `CCOC(OCC)C(=O)OCC(=O)[C@]1(O)Cc2c(O)c3c(c(O)c2[C@@H](OC2CC(N)C(O)C(C)O2)C1)C(=O)c1c(OC)cccc1C3=O` (stereo partly specified), the T/C (dose: 20.0 mg/kg/injection, schedule: Q04DX004 (sc), vehicle: water) is 33 % of control.
Turning to `O=C(O)CCCCCCCC(=O)O`, the T/C is, setting by setting: (dose: 600.0 mg/kg/injection, schedule: Q04DX004 (sc), vehicle: distilled water + Tween-80) 67 % of control; (dose: 2400.0 mg/kg/injection, schedule: Q04DX004 (sc), vehicle: distilled water + Tween-80) 113 % of control.
As for `C[C@]12CC[C@H]3[C@@H](CCC4=C[C@@H](OC5OCC(OC6OC(CO)C(O)C(O)C6O)C(O)C5O)CC[C@@]43C=O)[C@@]1(O)CCC2C1=CC(=O)OC1` (stereo partly specified), the T/C is 67 % of control (dose: 3.75 mg/kg/injection, schedule: Q04DX004 (sc), vehicle: Klucel (hydroxypropylcellulose) (HPC)); 97 % of control (dose: 7.5 mg/kg/injection, schedule: Q04DX004 (sc), vehicle: Klucel (hydroxypropylcellulose) (HPC)); 93 % of control (dose: 15.0 mg/kg/injection, schedule: Q04DX004 (sc), vehicle: Klucel (hydroxypropylcellulose) (HPC)); 110 % of control (dose: 30.0 mg/kg/injection, schedule: Q04DX004 (sc), vehicle: Klucel (hydroxypropylcellulose) (HPC)).
`CN(C)N=Nc1cccc(C(N)=O)c1`: the T/C (dose: 50.0 mg/kg/injection, schedule: Q04DX004 (sc), vehicle: Klucel (hydroxypropylcellulose) (HPC)) is 92 % of control and 116 % of control.
`NC(=O)c1[nH]nc(C2OC(CO)C(O)C2O)c1O` (stereo unspecified): where the note is “dose: 10.0 mg/kg/injection, schedule: Q04DX004 (sc), vehicle: saline”, the T/C was 73 % of control.
`COC12C(COC(N)=O)C3=C(C(=O)C(C)=C(N)C3=O)N1CC1C2N1C` (stereo unspecified): the T/C by setting is: (dose: 2.0 mg/kg/injection, schedule: Q01DX010 (sc), vehicle: saline) 114 % of control; (dose: 4.0 mg/kg/injection, schedule: Q01DX010 (sc), vehicle: saline) 8 % of control and 12 % of control.
With `C=C(NC(=O)C(=C)NC(=O)c1csc(C2=NC3c4csc(n4)C4NC(=O)c5csc(n5)C(C(C)(O)C(C)O)NC(=O)C5CSC(=N5)/C(=C/C)NC(=O)C(C(C)O)NC(=O)c5csc(n5)C3(CC2)NC(=O)C(C)NC(=O)C(=C)NC(=O)C(=C)NC(=O)C(C(C)C)NC2C=Cc3c(C(C)O)cc(nc3C2O)C(=O)OC4C)n1)C(N)=O` (stereo unspecified), the T/C runs as follows: (dose: 125.0 mg/kg/injection, schedule: Q04DX004 (sc), vehicle: suspension in saline) 789 % of control; (dose: 250.0 mg/kg/injection, schedule: Q04DX004 (sc), vehicle: suspension in saline) 419 % of control; (dose: 500.0 mg/kg/injection, schedule: Q04DX004 (sc), vehicle: saline) 59 % of control; (dose: 750.0 mg/kg/injection, schedule: Q04DX004 (sc), vehicle: saline) 97 % of control; (dose: 750.0 mg/kg/injection, schedule: Q04DX004 (sc), vehicle: suspension in saline) 73 % of control; (dose: 1000.0 mg/kg/injection, schedule: Q04DX004 (sc), vehicle: saline) 65 % of control. The T/C is, setting by setting: (dose: 1250.0 mg/kg/injection, schedule: Q04DX004 (sc), vehicle: saline) 91 % of control; (dose: 1250.0 mg/kg/injection, schedule: Q04DX004 (sc), vehicle: suspension in saline) 82 % of control.
On to `COC(=O)c1ccoc1`, for which the T/C (dose: 150.0 mg/kg/injection, schedule: Q04DX004 (sc), vehicle: saline) is 116 % of control.
On to `CCCCC1CCCCCCc2[nH]c(/C=C3\N=C(c4ccc[nH]4)C=C3OC)cc21` (stereo unspecified), for which, under “dose: 16.0 mg/kg/injection, schedule: Q04DX004 (sc), vehicle: saline with Tween-80”, the T/C was 200 % of control.
As to `CCN(CC)CCOC(=O)Cc1cccc2c(=O)cc(-c3ccccc3)oc12`, the T/C is, setting by setting: under setting [1], 70 % of control; under setting [2], 104 % of control; (dose: 200.0 mg/kg/injection, schedule: Q04DX004 (sc), vehicle: saline with Tween-80) 102 % of control.
Turning to `[N-]=[N+]=CC(=O)CCC(=O)C=[N+]=[N-]`, the T/C is 85 % of control and 99 % of control (dose: 36.0 mg/kg/injection, schedule: Q04DX004 (sc), vehicle: DMSO); 79 % of control (dose: 72.0 mg/kg/injection, schedule: Q04DX004 (sc), vehicle: DMSO).
As to `Nc1nc(N)c2c(ccc3c2ccn3Cc2cccc([N+](=O)[O-])c2)n1`, the T/C is, setting by setting: (dose: 6.25 mg/kg/injection, schedule: Q04DX004 (sc), vehicle: saline with Tween-80) 97 % of control; (dose: 12.5 mg/kg/injection, schedule: Q04DX004 (sc), vehicle: saline with Tween-80) 78 % of control; (dose: 25.0 mg/kg/injection, schedule: Q04DX004 (sc), vehicle: saline with Tween-80) 57 % of control; under setting [1], 77 % of control; (dose: 75.0 mg/kg/injection, schedule: Q04DX004 (sc), vehicle: saline with Tween-80) 157 % of control; (dose: 150.0 mg/kg/injection, schedule: Q04DX004 (sc), vehicle: saline with Tween-80) 54 % of control.
